# Experimental data reported in patent US9993562B2, “Metallic gold cluster molecules as therapeutic agents for arthritic animals” (priority 2016, dated 2018).
# No end group written: not given here.
# Tests used:
# IL-6 = test: Amount of IL-6 at the arthritic joints (FIG. 10); format: in vivo, DBA/1 male mice
# Protocol: (§1) On day 22, groups of mice were given different drugs once each day for 28 days (4 weeks) until day 49 (end of week 7). The groups of mice were examined for inflammation and status.
# (§2) In reference to FIGS. 10 and 11, the amount of pro-inflammation cytokine factors IL-6 and IL-1β were measured at the arthritic joints of the variously treated mice groups.
# [1] = light and heat; cited from earlier work
# [2] = test system: Collagen induced arthritis in mice; test: Visual inflammation scoring of paws (0-4 per limb, four limbs summed), collagen induced arthritis; format: in vivo, DBA/1 male mice
# Excerpt: Collagen induced arthritis in mice has been the standard animal model for studying rheumatoid arthritis and other polyarthritis. DBA/1 male mice weighted 20-22 grams were purchased from Hua-Fu-Kang Biotechnology Limited, Beijing, China. Type II collagen and Complete Freund's Adjuvant were purchased from Chondrex Inc., Redmond, Wash., USA. Auranofin was purchased from Sigma, USA and Dexamethasone was purchased from Jin-Yao Amino Acid Company, Tianjing, China. Gold25(peptide)9 cluster molecules were prepared according to Example 1.
# (§3) Type II collagen was dissolved in 0.1 mM acetic acid solution and was emulsified with equal volume of Complete Freund's Adjuvant to make a 1.0 mg/ml Type II collagen emulsion. After one week of resting and environment adjustment, DBA/1 male mice were divided into groups, each group was consisted of 10 mice. Each animal was injected intradermally at the 2-3 cm base of the tail an emulsion of 100 μg Type II collagen. On day 21, a second booster dose of 100 μg Type II collagen emulsion was injected. Negative control group of mice are injected with equal amount of 0.9% Sodium Chloride solution.
# as §1
# The inflammation was assessed by means of a visual scoring method where mouse individual paws were graded from 0-4 as follows:
# 0 score: no redness and no swelling;
# 1 score: mild erythema at the toes;
# 2 scores: toe joints and paw swelling;
# 3 scores: swelling below ankle
# 4 scores: all ankle and paw swelling. • All four limbs of each mouse were examined and scored, and scores of all four limbs were added together for each mouse.
# [3] = Effect of treatment on body weight of type II collagen immunized mice; format: in vivo, DBA/1 male mice; settings: mean ± sd
# Protocol: DBA/1 male mice weighted 20-22 grams were purchased from Hua-Fu-Kang Biotechnology Limited, Beijing, China. Type II collagen and Complete Freund's Adjuvant were purchased from Chondrex Inc., Redmond, Wash., USA. […] Gold25(peptide)9 cluster molecules were prepared according to Example 1.
# as §3, §1
# [4] = Amount of gold at the arthritic joints (FIG. 9); format: in vivo, DBA/1 male mice; settings: group 3, oral 1 mg/kg daily
# Protocol: as §1
# In reference to FIG. 9, the amount of gold was measured at the arthritic joints of the variously treated mice groups.
# [5] = orally administered form, crystalline solid; cited from earlier work
# [6] = test system: Collagen induced arthritis in mice; test: Pictures of hind limb swelling (FIG. 6), collagen induced arthritis; format: in vivo, DBA/1 male mice; settings: end of 7 weeks of the experiment
# Protocol: as §3, §1
# [7] = patients; cited from earlier work
# [8] = test system: Collagen induced arthritis in mice; test: Hematoxylin and eosin histology of hind limb joint sections (FIG. 8); format: in vivo, DBA/1 male mice; settings: H&E
# Protocol: as §3, §1
# To evaluate the soft tissue damages around the joint area, the joint tissues of the hind limbs of each mouse groups were then fixed, embedded, sectioned into slides and hematoxylin and eosin stained to examine the histology and histopathology changes at the joints.
# IL-1β = test: Amount of IL-1β at the arthritic joints (FIG. 11); format: in vivo, DBA/1 male mice
# Protocol: as §1, §2
# [9] = test system: Collagen induced arthritis in mice; test: 3D CT scan of paw joints, bone density changes (FIG. 7); format: in vivo, DBA/1 male mice; settings: end of week 7
# Protocol: as §3, §1
# TNF = test: Amount of TNF at the arthritic joints; format: in vivo, DBA/1 male mice
# Protocol: as §1
# In reference to […], the amount of pro-inflammation cytokine TNF was measured at the arthritic joints of the variously treated mice groups. […] The observed significant differences in effectiveness between orally administering and intraperitoneally administering methods may result from the fact that the amount of gold can be more and directly up-taken through phagocytosis by the macrophage cells peritoneum. This effect is also largely consistent with the prior observation that gold25(peptide)9 cluster molecules are capable of induce apoptosis in various cells, and its binding ability of cysteine-rich pro-inflammation cytokines helps with its anti-inflammation effect.
compound,measurement,setting,value
"CC[PH](CC)(CC)[Au][S][C@@H]1O[C@H](COC(C)=O)[C@@H](OC(C)=O)[C@H](OC(C)=O)[C@H]1OC(C)=O [Auranofin, 2,3,4,6-tetra-o-acetyl-1-thio-β-D-glucopyranosato-S-(triethyl-phosphine)-gold, reference compound]",Amount of IL-6 at the arthritic joints,"IL-6; group 3, oral 1 mg/kg daily",remained high
same,Stability of the powder,[1],unstable and must be protected from light and heat
same,"Inflammation visual score (sum of four limbs, each 0-4)","[2]; 35 d, i.g. 1 mg/kg once daily from day 22",6.66 ± 2.00
same,"Inflammation visual score (sum of four limbs, each 0-4)","[2]; 38 d, i.g. 1 mg/kg once daily from day 22",5.77 ± 3.42
same,"Inflammation visual score (sum of four limbs, each 0-4)","[2]; 42 d, i.g. 1 mg/kg once daily from day 22",8.11 ± 2.47
same,"Inflammation visual score (sum of four limbs, each 0-4)","[2]; 45 d, i.g. 1 mg/kg once daily from day 22",8.33 ± 3.42
same,"Inflammation visual score (sum of four limbs, each 0-4)","[2]; 49 d, i.g. 1 mg/kg once daily from day 22",9.88 ± 3.06
same,Swelling scores (in words),[2]; oral 1 mg/kg body weight,slightly lower swelling scores
same,Mice Body Weight,"[3]; 0 w (before dosing, which starts day 22), group i.g. 1 mg/kg",21.60 ± 1.17 g
same,Mice Body Weight,"[3]; 1 wk (before dosing), group i.g. 1 mg/kg",23.25 ± 1.11 g
same,Mice Body Weight,"[3]; 2 wk (before dosing), group i.g. 1 mg/kg",23.75 ± 1.11 g
same,Mice Body Weight,"[3]; 3 wk (before dosing), group i.g. 1 mg/kg",24.35 ± 1.53 g
same,Mice Body Weight,"[3]; 4 wk, i.g. 1 mg/kg once daily from day 22",22.10 ± 1.10 g
same,Mice Body Weight,"[3]; 5 wk, i.g. 1 mg/kg once daily from day 22",21.74 ± 1.14 g
same,Mice Body Weight,"[3]; 6 wk, i.g. 1 mg/kg once daily from day 22",23.24 ± 0.08 g
same,Mice Body Weight,"[3]; 7 wk, i.g. 1 mg/kg once daily from day 22",23.33 ± 0.25 g
same,Amount of gold at the arthritic joints,[4],Less but comparable amount gold
same,Solubility in water,[5],insoluble in water
same,Hind limb swelling in pictures (FIG. 6),[6]; oral 1 mg/kg daily,swelling and no obvious improvement
same,Side effects,[7],Diarrhea is the most commonly reported
same,"Joint histopathology (bone erosion, soft tissue damage, synovial macrophage infiltration)",[8]; oral 1 mg/kg daily,"significant soft tissue damages at the joint areas, and large number of infiltration of synovial macrophage cells"
same,Amount of IL-1β at the arthritic joints,"IL-1β; group 3, oral 1 mg/kg daily",remained high
same,"Bone deformation and osteolysis of paw joints, 3D CT",[9]; oral 1 mg/kg daily,still developed bone deformation and osteolysis
"C[C@@H]1C[C@H]2[C@@H]3CCC4=CC(=O)C=C[C@]4(C)[C@@]3(F)[C@@H](O)C[C@]2(C)[C@@]1(O)C(=O)CO [DEX, Dexamethasone, reference compound]","Inflammation visual score (sum of four limbs, each 0-4)","[2]; 35 d, i.g. 0.5 mg/kg once daily from day 22",0.22 ± 0.44
same,"Inflammation visual score (sum of four limbs, each 0-4)","[2]; 38 d, i.g. 0.5 mg/kg once daily from day 22",0.33 ± 0.71
same,"Inflammation visual score (sum of four limbs, each 0-4)","[2]; 42 d, i.g. 0.5 mg/kg once daily from day 22",1.22 ± 1.30
same,"Inflammation visual score (sum of four limbs, each 0-4)","[2]; 45 d, i.g. 0.5 mg/kg once daily from day 22",1.33 ± 1.00
same,"Inflammation visual score (sum of four limbs, each 0-4)","[2]; 49 d, i.g. 0.5 mg/kg once daily from day 22",1.22 ± 0.97
same,Mice Body Weight,"[3]; 2 wk (before dosing), group i.g. 0.5 mg/kg",23.20 ± 1.06 g
same,Mice Body Weight,"[3]; 3 wk (before dosing), group i.g. 0.5 mg/kg",23.50 ± 1.02 g
Au25 (peptide)9: metallic 25 gold atom cluster binding 9 peptides of SEQ ID NO: 1 Cys-Cys-Tyr-Gly-Gly-Pro-Lys-Lys-Lys-Arg-Lys-Pro-Gly (CCYGGPKKKRKPG; cysteine pairing not given here; also: 9 peptides bound to Au25 gold cluster),Amount of IL-6 at the arthritic joints,"IL-6; group 4, oral 50 mg/kg daily",reduced these two cytokines to the similar level as that of Dex
same,Amount of IL-6 at the arthritic joints,"IL-6; group 5, i.p. 5 mg/kg daily",reduced these two cytokines to the similar level as that of Dex
same,"Inflammation visual score (sum of four limbs, each 0-4)","[2]; 35 d, i.g. 50 mg/kg once daily from day 22",6.13 ± 3.09
same,"Inflammation visual score (sum of four limbs, each 0-4)","[2]; 35 d, i.p. 5 mg/kg once daily from day 22",8.00 ± 2.78
same,"Inflammation visual score (sum of four limbs, each 0-4)","[2]; 38 d, i.g. 50 mg/kg once daily from day 22",7.00 ± 3.07
same,"Inflammation visual score (sum of four limbs, each 0-4)","[2]; 38 d, i.p. 5 mg/kg once daily from day 22",7.77 ± 4.49
same,"Inflammation visual score (sum of four limbs, each 0-4)","[2]; 42 d, i.g. 50 mg/kg once daily from day 22",8.88 ± 3.04
same,"Inflammation visual score (sum of four limbs, each 0-4)","[2]; 42 d, i.p. 5 mg/kg once daily from day 22",7.00 ± 3.20
same,"Inflammation visual score (sum of four limbs, each 0-4)","[2]; 45 d, i.g. 50 mg/kg once daily from day 22",8.88 ± 3.52
same,"Inflammation visual score (sum of four limbs, each 0-4)","[2]; 45 d, i.p. 5 mg/kg once daily from day 22",6.38 ± 2.33
same,"Inflammation visual score (sum of four limbs, each 0-4)","[2]; 49 d, i.g. 50 mg/kg once daily from day 22",9.13 ± 0.48
same,"Inflammation visual score (sum of four limbs, each 0-4)","[2]; 49 d, i.p. 5 mg/kg once daily from day 22",5.88 ± 3.40
same,Swelling and joint deformity (in words),"[2]; i.p. 5 mg/kg body weight, 3′ week of treatment",significantly improved
same,Swelling scores (in words),"[2]; oral 50 mg/kg body weight, by the end of 4 weeks of treatment","better scores than Auranofin, but still developed comparable inflammation"
same,Amount of TNF at the arthritic joints,"TNF; group 4, oral 50 mg/kg daily",also reduced the amount of TNF
same,Amount of TNF at the arthritic joints,"TNF; group 5, i.p. 5 mg/kg daily",dramatically reduced the TNF generation
same,Mice Body Weight,"[3]; 0 w (before dosing, which starts day 22), group i.g. 50 mg/kg",21.60 ± 1.31 g
same,Mice Body Weight,"[3]; 0 w (before dosing, which starts day 22), group i.p. 5 mg/kg",22 ± 1.27 g
same,Mice Body Weight,"[3]; 1 wk (before dosing), group i.g. 50 mg/kg",23.05 ± 1.04 g
same,Mice Body Weight,"[3]; 1 wk (before dosing), group i.p. 5 mg/kg",23.25 ± 1.21 g
same,Mice Body Weight,"[3]; 2 wk (before dosing), group i.g. 50 mg/kg",23.40 ± 1.33 g
same,Mice Body Weight,"[3]; 2 wk (before dosing), group i.p. 5 mg/kg",24.13 ± 0.99 g
same,Mice Body Weight,"[3]; 3 wk (before dosing), group i.g. 50 mg/kg",24.10 ± 1.50 g
same,Mice Body Weight,"[3]; 3 wk (before dosing), group i.p. 5 mg/kg",24.00 ± 0.85 g
same,Mice Body Weight,"[3]; 4 wk, i.g. 50 mg/kg once daily from day 22",22.66 ± 1.64 g
same,Mice Body Weight,"[3]; 4 wk, i.p. 5 mg/kg once daily from day 22",23.30 ± 0.84 g
same,Mice Body Weight,"[3]; 5 wk, i.g. 50 mg/kg once daily from day 22",22.35 ± 1.73 g
same,Mice Body Weight,"[3]; 5 wk, i.p. 5 mg/kg once daily from day 22",23.01 ± 0.70 g
same,Mice Body Weight,"[3]; 6 wk, i.g. 50 mg/kg once daily from day 22",23.23 ± 1.71 g
same,Mice Body Weight,"[3]; 6 wk, i.p. 5 mg/kg once daily from day 22",22.63 ± 1.71 g
same,Mice Body Weight,"[3]; 7 wk, i.g. 50 mg/kg once daily from day 22",23.43 ± 1.47 g
same,Mice Body Weight,"[3]; 7 wk, i.p. 5 mg/kg once daily from day 22",22.47 ± 1.43 g
same,Hind limb swelling in pictures (FIG. 6),[6]; i.p. 5 mg/kg daily,obvious reduced swelling and improvement in deformation
same,Hind limb swelling in pictures (FIG. 6),[6]; oral 50 mg/kg daily,still obvious swelling and slightly better condition
same,"Joint histopathology (bone erosion, soft tissue damage, synovial macrophage infiltration)",[8]; i.p. 5 mg/kg daily,the bone erosion is significantly less and no apparent number of synovial macrophage cells infiltration
same,"Joint histopathology (bone erosion, soft tissue damage, synovial macrophage infiltration)",[8]; oral 50 mg/kg daily,reduced soft tissue damages and less macrophage infiltration
same,Amount of IL-1β at the arthritic joints,"IL-1β; group 4, oral 50 mg/kg daily",reduced these two cytokines to the similar level as that of Dex
same,Amount of IL-1β at the arthritic joints,"IL-1β; group 5, i.p. 5 mg/kg daily",reduced these two cytokines to the similar level as that of Dex
same,"Bone density, deformation and osteolysis of paw joints, 3D CT",[9]; i.p. 5 mg/kg daily,"significant improvement on the bone density comparing the non-treated arthritis mice, and no obvious osteolysis and only slight bone deformation"
same,"Bone deformation and osteolysis of paw joints, 3D CT",[9]; oral 50 mg/kg daily,still developed bone deformation and osteolysis
